Source: patent US9227971B2, “Pyrazolo[1,5-a]pyrimidine compounds as mTOR inhibitors” (Merck Sharp & Dohme Corp., priority 2010, dated 2016)
Like-named read-outs stand apart in the source and are kept apart here.

Columns and labels:
[1] = test system: phosphorylated AKT Ser473 (pAKT S473), mTORC2 activity, PC3 cells; test: mTOR target engagement assay, immunofluorescent cell-based, pAKT S473 readout (mTORC2 activity); conditions: Homo sapiens
Procedure, shortened: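 After blocking, cells were stained overnight at 4 °C with anti-pAKT S473 antibody, then a fluorescent secondary; inhibition was read as reduced fluorescence intensity.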

[2] = test system: phosphorylated 4E-BP1 Thr37/46 (p4E-BP1 Thr37/46), mTORC1 activity, PC3 cells; test: mTOR target engagement assay, immunofluorescent cell-based, p4E-BP1 Thr37/46 readout (mTORC1 activity); conditions: Homo sapiens, read-out: p4E-BP1 Thr37/46 IC50
Procedure, shortened: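 Seed PC3 cells overnight; treat with compound dilutions for ninety minutes at 37° C; fix with glyoxal and block; stain with anti-p4E-BP1 Thr37/46 overnight at 4° C, then fluorescent secondary; read fluorescence and fit IC50 against DMSO-only controls.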

[3] = PC-3, PC3 cells, compound treatment ninety minutes at 37° C.

SMILES | IC50 [1, 3] | IC50 [2, 3] | also measured
CC(=O)c1c([C@@H]2C[C@H]3CC[C@@H](C2)N3C(=O)c2nnc[nH]2)nc2c(-c3ccc(-c4nn(C)cc4F)nc3)cnn2c1N [Compound 1.1.106, 1-(5-((1R,3s,5S)-8-(4H-1,2,4-triazole-3-carbonyl)-8-azabicyclo[3.2.1]octan-3-yl)-7-amino-3-(6-(4-fluoro-1-methyl-1H-pyrazol-3-yl)pyridin-3-yl)pyrazolo[1,5-a]pyrimidin-6-yl)ethanone] | 1 to 100 nM | 1 to 100 nM | –
COc1ccc(-c2ccc(-c3cnn4c(N)c(C(C)=O)c([C@H]5C[C@H]6CC[C@@H](C5)N6C(=O)c5nnc[nH]5)nc34)cn2)cc1F [Compound 1.1.54, 1-(5-((1R,3r,5S)-8-(4H-1,2,4-triazole-3-carbonyl)-8-azabicyclo[3.2.1]octan-3-yl)-7-amino-3-(6-(3-fluoro-4-methoxyphenyl)pyridin-3-yl)pyrazolo[1,5-a]pyrimidin-6-yl)ethanone] | 100 to 1000 nM | 100 to 1000 nM | –
CC(=O)c1c([C@@H]2C[C@H]3CC[C@@H](C2)N3C(=O)c2nnc(C)[nH]2)nc2c(-c3ccc(C(N)(C(F)(F)F)C(F)(F)F)nc3)cnn2c1N [Compound 7.82, 1-(7-amino-3-(6-(2-amino-1,1,1,3,3,3-hexafluoropropan-2-yl)pyridin-3-yl)-5-((1R,3s,5S)-8-(5-methyl-4H-1,2,4-triazole-3-carbonyl)-8-azabicyclo[3.2.1]octan-3-yl)pyrazolo[1,5-a]pyrimidin-6-yl)ethanone] | – | – | IC50 ([1]; PC-3, PC3 cells): 1000 to 10000 nM; IC50 ([2]; PC-3, PC3 cells): 1000 to 10000 nM
CCn1ccc(-c2ccc(-c3cnn4c(N)c(C(C)=O)c([C@@H]5C[C@H]6CC[C@@H](C5)N6C(=O)c5nnc[nH]5)nc34)cn2)n1 [Compound 1.1.138, 1-(5-((1R,3s,5S)-8-(4H-1,2,4-triazole-3-carbonyl)-8-azabicyclo[3.2.1]octan-3-yl)-7-amino-3-(6-(1-ethyl-1H-pyrazol-3-yl)pyridin-3-yl)pyrazolo[1,5-a]pyrimidin-6-yl)ethanone] | 1 to 100 nM | 1 to 100 nM | –
CCOc1ccc(-c2ccc(-c3cnn4c(N)c(C(C)=O)c([C@@H]5C[C@H]6CC[C@@H](C5)N6C(=O)c5nnc[nH]5)nc34)cn2)cc1 [Compound 1.1.73, 1-(5-((1R,3s,5S)-8-(4H-1,2,4-triazole-3-carbonyl)-8-azabicyclo[3.2.1]octan-3-yl)-7-amino-3-(6-(4-ethoxyphenyl)pyridin-3-yl)pyrazolo[1,5-a]pyrimidin-6-yl)ethanone] | 1 to 100 nM | 1 to 100 nM | –
CC(=O)c1c([C@@H]2C[C@H]3CC[C@@H](C2)N3C(=O)c2nnc[nH]2)nc2c(-c3ccc(-c4ccc5nc[nH]c5c4)nc3)cnn2c1N [Compound 1.1.71, 1-(3-(6-(1H-benzo[d]imidazol-6-yl)pyridin-3-yl)-5-((1R,3s,5S)-8-(4H-1,2,4-triazole-3-carbonyl)-8-azabicyclo[3.2.1]octan-3-yl)-7-aminopyrazolo[1,5-a]pyrimidin-6-yl)ethanone] | 100 to 1000 nM | 100 to 1000 nM | –
CC(=O)N1[C@@H]2CC[C@H]1C[C@H](c1nc3c(-c4ccc(-c5csc(C)n5)nc4)cnn3c(N)c1S(C)(=O)=O)C2 [Compound 3.200, 1-((1R,3s,5S)-3-(7-amino-6-(methylsulfonyl)-3-(6-(2-methylthiazol-4-yl)pyridin-3-yl)pyrazolo[1,5-a]pyrimidin-5-yl)-8-azabicyclo[3.2.1]octan-8-yl)ethanone] | – | – | IC50 ([1]; PC-3, Table 3-1, PC3 cells): 1000 to 10000 nM; IC50 ([2]; PC-3, Table 3-1, PC3 cells): 1000 to 10000 nM
COc1ccc2ncc(-c3cnn4c(N)c(C5CC5)c([C@@H]5C[C@H]6CC[C@@H](C5)N6C(=O)c5nnc[nH]5)nc34)cc2c1 [Compound 4.24, ((1R,3s,5S)-3-(7-amino-6-cyclopropyl-3-(6-methoxyquinolin-3-yl)pyrazolo[1,5-a]pyrimidin-5-yl)-8-azabicyclo[3.2.1]octan-8-yl)(4H-1,2,4-triazol-3-yl)methanone] | 100 to 1000 nM | 100 to 1000 nM | –
CC(=O)c1c([C@@H]2C[C@H]3CC[C@@H](C2)N3C(=O)c2ncn[nH]2)nc2c(-c3ccc(C(C)(C)O)nc3)cnn2c1N [Compound 7.5, 1-(5-((1R,3s,5S)-8-(1H-1,2,4-triazole-5-carbonyl)-8-azabicyclo[3.2.1]octan-3-yl)-7-amino-3-(6-(2-hydroxypropan-2-yl)pyridin-3-yl)pyrazolo[1,5-a]pyrimidin-6-yl)ethanone] | 1 to 100 nM | 1 to 100 nM | –
CC(=O)c1c([C@@H]2C[C@H]3CC[C@@H](C2)N3C(=O)CO)nc2c(-c3ccc(-c4nc[nH]n4)nc3)cnn2c1N [Compound 1.1.102, 1-((1R,3s,5S)-3-(3-(6-(1H-1,2,4-triazol-3-yl)pyridin-3-yl)-6-acetyl-7-aminopyrazolo[1,5-a]pyrimidin-5-yl)-8-azabicyclo[3.2.1]octan-8-yl)-2-hydroxyethanone] | 1 to 100 nM | 1 to 100 nM | –
Cc1ccc(-c2ccc(-c3cnn4c(N)c(S(C)(=O)=O)c([C@@H]5C[C@H]6CC[C@@H](C5)N6C(=O)c5nnc[nH]5)nc34)cn2)cc1F [Compound 3.45, ((1R,3s,5S)-3-(7-amino-3-(6-(3-fluoro-4-methylphenyl)pyridin-3-yl)-6-(methylsulfonyl)pyrazolo[1,5-a]pyrimidin-5-yl)-8-azabicyclo[3.2.1]octan-8-yl)(4H-1,2,4-triazol-3-yl)methanone] | – | – | IC50 ([1]; PC-3, Table 3-1, PC3 cells): 1 to 100 nM; IC50 ([2]; PC-3, Table 3-1, PC3 cells): 1 to 100 nM
Nc1cc([C@]2(O)C[C@H]3CC[C@@H](C2)N3C(=O)c2nnc[nH]2)nc2c(-c3ccc(-c4ccccc4)nc3)cnn12 [Compound 8.23, ((1R,3r,5S)-3-(7-amino-3-(6-phenylpyridin-3-yl)pyrazolo[1,5-a]pyrimidin-5-yl)-3-hydroxy-8-azabicyclo[3.2.1]octan-8-yl)(4H-1,2,4-triazol-3-yl)methanone] | – | – | IC50 ([1]; PC-3, PC3 cells): 1000 to 10000 nM; IC50 ([2]; PC-3, PC3 cells): 1000 to 10000 nM
CC(=O)c1c(C2CC3CCC(C2)N3C(=O)c2nnc(C)[nH]2)nc2c(-c3ccc(-c4ccccc4)nc3)cnn2c1N [Compound 1.1.22, 1-(7-amino-5-((1R,3s,5S)-8-(3-methyl-1H-1,2,4-triazole-5-carbonyl)-8-azabicyclo[3.2.1]octan-3-yl)-3-(6-phenylpyridin-3-yl)pyrazolo[1,5-a]pyrimidin-6-yl)ethanone] | 1 to 100 nM | 1 to 100 nM | –
CCN/C(=N\CCCN(C)C)n1ncc(C(=O)N2[C@@H]3CC[C@H]2C[C@H](c2nc4c(-c5ccc(-c6ccccc6F)nc5)cnn4c(N)c2S(C)(=O)=O)C3)n1 [Compound 8.46, (E)-4-((1R,3s,5S)-3-(7-amino-3-(6-(2-fluorophenyl)pyridin-3-yl)-6-(methylsulfonyl)pyrazolo[1,5-a]pyrimidin-5-yl)-8-azabicyclo[3.2.1]octane-8-carbonyl)-N′-(3-(dimethylamino)propyl)-N-ethyl-2H-1,2,3-triazole-2-carboximidamide] | – | – | IC50 ([1]; PC-3, PC3 cells): 1 to 100 nM; IC50 ([2]; PC-3, PC3 cells): 100 to 1000 nM
CC(=O)c1c([C@@H]2C[C@H]3CC[C@@H](C2)N3C#N)nc2c(-c3ccc(-c4ccccc4)nc3)cnn2c1N [Compound 8.71, (1R,3s,5S)-3-(6-acetyl-7-amino-3-(6-phenylpyridin-3-yl)pyrazolo[1,5-a]pyrimidin-5-yl)-8-azabicyclo[3.2.1]octane-8-carbonitrile] | – | – | IC50 ([1]; PC-3, PC3 cells): 100 to 1000 nM; IC50 ([2]; PC-3, PC3 cells): 100 to 1000 nM
Nc1c(C2CC2)c([C@@H]2C[C@H]3CC[C@@H](C2)N3C(=O)NO)nc2c(-c3ccc(-c4ccccc4)nc3)cnn12 [Compound 4.32, (1R,3s,5S)-3-(7-amino-6-cyclopropyl-3-(6-phenylpyridin-3-yl)pyrazolo[1,5-a]pyrimidin-5-yl)-N-hydroxy-8-azabicyclo[3.2.1]octane-8-carboxamide] | 1 to 100 nM | 1 to 100 nM | –
CC(=O)c1c([C@@H]2C[C@H]3CC[C@@H](C2)N3C(=O)c2nnc[nH]2)nc2c(-c3ccc(C)nc3)cnn2c1N [Compound 1.1.79, 1-(5-((1R,3s,5S)-8-(4H-1,2,4-triazole-3-carbonyl)-8-azabicyclo[3.2.1]octan-3-yl)-7-amino-3-(6-methylpyridin-3-yl)pyrazolo[1,5-a]pyrimidin-6-yl)ethanone] | 1 to 100 nM | 1 to 100 nM | –
CC(=O)c1c([C@@H]2C[C@H]3CC[C@@H](C2)N3C(=O)c2nnc[nH]2)nc2c(-c3cnc(C(C)(C)O)c(Cl)c3)cnn2c1N [Compound 1.1.181, 1-(5-((1R,3s,5S)-8-(4H-1,2,4-triazole-3-carbonyl)-8-azabicyclo[3.2.1]octan-3-yl)-7-amino-3-(5-chloro-6-(2-hydroxypropan-2-yl)pyridin-3-yl)pyrazolo[1,5-a]pyrimidin-6-yl)ethanone] | 1 to 100 nM | 1 to 100 nM | –
N#Cc1ncc(-c2cnn3c(N)cc([C@@H]4C[C@H]5CC[C@@H](C4)N5C(=O)c4nnc[nH]4)nc23)cn1 [Compound 8.95, 5-(5-((1R,3s,5S)-8-(4H-1,2,4-triazole-3-carbonyl)-8-azabicyclo[3.2.1]octan-3-yl)-7-aminopyrazolo[1,5-a]pyrimidin-3-yl)pyrimidine-2-carbonitrile] | – | – | IC50 ([1]; PC-3, PC3 cells): > 10000 nM; IC50 ([2]; PC-3, PC3 cells): > 10000 nM
Cc1n[nH]cc1C(=O)N1[C@@H]2CC[C@H]1C[C@H](c1nc3c(-c4ccc(-c5ccccc5)nc4)cnn3c(N)c1S(C)(=O)=O)C2 [Compound 3.80, ((1R,3s,5S)-3-(7-amino-6-(methylsulfonyl)-3-(6-phenylpyridin-3-yl)pyrazolo[1,5-a]pyrimidin-5-yl)-8-azabicyclo[3.2.1]octan-8-yl)(3-methyl-1H-pyrazol-4-yl)methanone] | – | – | IC50 ([1]; PC-3, Table 3-1, PC3 cells): 1 to 100 nM; IC50 ([2]; PC-3, Table 3-1, PC3 cells): 1 to 100 nM
